One assay concerns the target human wild type TTR (Homo sapiens (Human), UniProt P02766). Description: Isothermal titration calorimetry (ITC) of ligands against TTR. It is filed as binding. The note with it: for TΔS binding entropy / ΔG binding free energy / ΔH binding enthalpy: ITC; for Kd: TTR 2 μM titrated with ligand 25 μM. The protocol:
Calorimetric titrations were carried out on a VP-ITC calorimeter (MicroCal, Northhampton, Mass.). […] Prior to each titration, all samples were degassed for 10 minutes. The initial injection of 3.0 μL was followed by 30 injections of 8.0 μL each (25° C.) to the point that TTR was fully saturated with ligand. Integration of the thermogram after subtraction of blanks yielded a binding isotherm that was analyzed with MicroCal Origin 5.0 software.
(In ITC the heat of successive injections is recorded.)

The target in assay [1] is T1, TTR (Homo sapiens (Human), UniProt P02766). Description: Fluorescence polarization displacement assay (probe 5 displaced from TTR). Type of assay: binding. The note with it: probe 5 100 nM, TTR 200 nM. The protocol:
The affinity of test compounds to TTR was determined as follows. […] The samples were allowed to equilibrate by agitation for 20 min at room temperature and the fluorescence polarization was measured as described above. The data were fit to the following equation [y=(A−D)/(1+(x/C)^B)+D] where A=maximum FP signal, B=slope, C=apparent binding constant (Kapp), and D=minimum FP signal. The apparent binding constant was reported as mean for triplicate experiments and the best data fit was determined by R^2 value.

Assay [2] concerns the target T1, TTR. Particulars: read-out: Kd (reported affinity for TTR); cited from earlier work.
Assay [3] has as its target wild type biotinylated TTR (Homo sapiens (Human), UniProt P02766). Put plainly: Surface plasmon resonance (SPR) assay for TTR-ligand interaction. It is filed as binding. The protocol:
To an ice-cold solution of TTR (20 μM) in PBS was added EZ-Link Sulfo-NHS-LC-Biotin at a ratio of ˜2:1 (biotin:TTR) (minimal biotinylation) and the solution was incubated at room temperature. After 1 hour, un-reacted biotin was removed by passing the sample over a fast (FPLC) desalting column (Superdex™ 75) equilibrated with PBS.
SPR measurements were performed at 25° C. using a Biacore T100 (GE Healthcare) instrument equilibrated in 1% DMSO in PBS as a running buffer. After pretreatment of the streptavidin-coated chip (Sensor Chop SA, Biacore), ˜4000 RU biotinylated TTR was immobilized on one channel leaving the second flow channel as a blank (streptavidin alone) control. For binding measurements, HTS hits were diluted in running buffer (1% DMSO/PBS) and different dilution series were flowed over the chip at 50 μL/min ([…], 600 s wash). A zero concentration sample was used as a negative control. The kinetic data was fitted to a one-to-one binding model using Biacore T100 evaluation software.

A further assay concerns the target WT TTR (Homo sapiens (Human), UniProt P02766). Put plainly: Acid-mediated fibril formation assay for TTR amyloidogenesis (turbidity). Particulars: substoichiometric: ligand 3.0 μM, TTR 3.6 μM, monitored over 5 days.
Assay [4] concerns the target T1, TTR. Put plainly: Fluorescence polarization saturation binding experiment. The protocol: The binding of probe 5 for TTR was evaluated as follows. […] The samples were allowed to equilibrate by agitation for 20 min at room temperature. Fluorescence polarization (excitation λ 485 nm, emission λ 525 nm, Cutoff λ 515 nm) measurements were taken using SpectraMax M5 Microplate Reader (Molecular Devices). […] Nonspecific FP, produced by the free fluorescent probe 5 as well as by binding of 5 to the plate, was equal to 70±10 mP.
(In general: In fluorescence polarisation assays a small probe gives low polarisation when free and higher when bound to something large.)

A further assay deals with IL-2 (Homo sapiens (Human), UniProt P60568). The note with it: cited from earlier work.
[5] abbreviates: 25° C., one-to-one binding model, read-out: Kd (ITC).
[6] abbreviates: read-out: FP Kapp (apparent binding constant).

Where two headings read alike, the source gives them in different places.

IL-2, sequence (P60568 21-153): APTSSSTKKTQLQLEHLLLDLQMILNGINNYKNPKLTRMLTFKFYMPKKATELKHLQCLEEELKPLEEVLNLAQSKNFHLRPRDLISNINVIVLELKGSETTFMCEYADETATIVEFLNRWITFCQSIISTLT
Procedure for WT TTR: The efficacy of each compound to inhibit TTR amyloidogenesis was determined by monitoring the turbidity of TTR aggregation at acidic pH, as described previously. […] The final 1 ml sample mixture was vortexed, then incubated at 37° C. for 72 hours, after which the sample was vortexed and the optical density was measured at 400 nm on a Beckman DU® 640 spectrophotometer. […] The optical density was also corrected for the absorption of all test compounds in the absence of TTR. […] The optical density (400 nm) was measured as described above at 0, 24, 48, 72, 96, and 120 hours. All assays were performed in triplicate and the average values obtained are presented.
TTR was preincubated with small molecules for 30 min at room temperature before amyloidosis was initiated (lowering pH to 4.4, incubation at 37° C.). […] The amyloidogenesis inhibition efficacy of each compound was determined by monitoring the turbidity of TTR (400 nm). The extent of TTR amyloidogenesis was quantitated at a fixed time point (72 h). All amyloid fibril formation data was normalized to TTR amyloidogenesis in the absence of inhibitor, assigned to be 100% fibril formation. […] The aggregation inhibition was monitored over 5 days using the acid-mediated fibril formation assay (compared to 3 days for the fixed time point described above) (FIG. 5B).

Turning to `O=C(O)c1ccc(-c2c(F)cccc2F)cc1` [Compound 1, reference compound], on human wild type TTR, the TΔS binding entropy was -21.72 ± 0.26 kcal/mol. Further, the “ΔG binding free energy” value on human wild type TTR is -9.74 ± 0.10 kcal/mol. This compound came in with a ΔH binding enthalpy at human wild type TTR of -31.46 ± 0.37 kcal/mol. Further, the figures for the Kd at human wild type TTR (setting [5]), on human wild type TTR (read-out: ITC Kd) and at TTR [2] were 0.0725 ± 0.0047 µM, 0.0724 µM and 0.08 µM, respectively. The apparent binding constant (Kapp) on TTR [1] (setting [6]) was found to be 231 nM.
Consider `NCCOCCOCCNC(=O)c1ccc(-c2c(F)cccc2F)cc1` [Compound 2, N-(2-(2-(2-aminoethoxy)ethoxy)ethyl)-2′,6′-difluorobiphenyl-4-carboxamide], for which the values for the Kd on human wild type TTR (setting [5]), on human wild type TTR (read-out: ITC Kd) and at TTR [1] (setting [6]) were over 3.29 µM, over 3.29 µM and over 50 µM, respectively. The “displacement of probe 5 from TTR (FP signal)” value at TTR [1] is reported as “did not displace probe 5”.
In general, koff refers to the rate constant with which the complex falls apart. A low value points to slow dissociation. The kon is the second-order rate constant of association. As to `O=C(O)Cc1ccccc1Nc1c(Cl)cccc1Cl` [Diclofenac, reference compound], at human wild type TTR, the TΔS binding entropy was determined as 4.08 ± 0.37 kcal/mol, the “ΔG binding free energy” value was -8.78 ± 0.59 kcal/mol and the ΔH binding enthalpy was -4.69 ± 0.42 kcal/mol. Moreover, at human wild type TTR (listed as diclofenac), the TΔS binding entropy was determined as 4.08 ± 0.37 kcal/mol, the “ΔG binding free energy” value is -8.78 ± 0.59 kcal/mol and the ΔH binding enthalpy was -4.69 ± 0.42 kcal/mol. The Kd on human wild type TTR (setting [5]) came to 0.37 µM. Besides, the Kd on human wild type TTR (read-out: ITC Kd) was 0.37 µM. Moreover, the Kd at TTR [1] (setting [6]) was 4.66 µM. The Kd in assay [3] (25° C., read-out: Kd (SPR, equilibrium / steady state analysis)) is 0.123 ± 0.00891 µM. Also, in assay [3] (SPR), the koff worked out at 1.01 s⁻¹, the kon turned out to be 8.18e+06 M⁻¹ s⁻¹ and the “lower target residence time than 7” value is on record as about 40 ×. Besides, the “inhibition of fibril formation” value against WT TTR was about 55%.
As for Fluorescein isothiocyanate [FITC], the “change in FP signal upon addition of TTR” value on TTR [4] was “no change in the FP signal”.
The IC50 is the point on the concentration scale where inhibition reaches its midpoint. With Ro26-4550, the figures for the IC50 on IL-2 (read-out: IC50 (IL-2 antagonist)) and on IL-2 (read-out: IC50 (Ro26-4550 bound to IL2)) were 3 to 6 µM and 6 µM, respectively.

(Values after patent US8877795B2, “Identification of stabilizers of multimeric proteins” (The Board of Trustees of the Leland Stanford Junior …, priority 2010, dated 2014).)
